Tests used:
Assay in all cases: relative viability (nuclei count vs DMSO), 5 days (fraction); higher = more cells survive
BI-D1870 + AZD7762 = compound: CC(C)CCN1c2nc(Nc3cc(F)c(O)c(F)c3)ncc2N(C)C(=O)C1C [BI-D1870] + NC(=O)Nc1cc(-c2cccc(F)c2)sc1C(=O)N[C@H]1CCCNC1 [AZD7762] (partner 0.2 µM)
How it was run: (§1)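 Lung cancer cell lines were seeded in 1536-well plates and dosed by pin tool the next day, with either a single drug or a fixed anchor-drug dose combined with five library-drug doses (not always all listed) spaced in √10 steps. Five days later, one step fixed the cells and stained their nuclei (final 0.05% Triton X-100, 1% formaldehyde, 1 ug/ml Hoechst), and nuclei were counted on 4× images. Relative viability is the nuclei count in treated wells divided by the count in vehicle wells, and each value is the median of duplicate plates.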

BI-D1870 + OSI-027 = compound: CC(C)CCN1c2nc(Nc3cc(F)c(O)c(F)c3)ncc2N(C)C(=O)C1C [BI-D1870] + COc1cccc2cc(-c3nc([C@H]4CC[C@H](C(=O)O)CC4)n4ncnc(N)c34)[nH]c12 [OSI-027] (partner 0.5 µM)
How it was run: as §1

BI-D1870 + Tozasertib = compound: CC(C)CCN1c2nc(Nc3cc(F)c(O)c(F)c3)ncc2N(C)C(=O)C1C [BI-D1870] + Cc1cc(Nc2cc(N3CCN(C)CC3)nc(Sc3ccc(NC(=O)C4CC4)cc3)n2)n[nH]1 [Tozasertib] (partner 0.1 µM)
How it was run: as §1

Zebularine + Alpelisib = compound: O=c1ncccn1[C@@H]1O[C@H](CO)[C@@H](O)[C@H]1O [Zebularine] + Cc1nc(NC(=O)N2CCC[C@H]2C(N)=O)sc1-c1ccnc(C(C)(C)C(F)(F)F)c1 [Alpelisib] (partner 2 µM)
How it was run: as §1

Row | Cell Line | relative viability (BI-D1870 + AZD7762; first compound 0.04 µM) | relative viability (BI-D1870 + AZD7762; first compound 0.1265 µM) | relative viability (BI-D1870 + AZD7762; first compound 1.265 µM) | relative viability (BI-D1870 + AZD7762; first compound 4 µM) | relative viability (BI-D1870 + OSI-027; first compound 0.04 µM) | relative viability (BI-D1870 + OSI-027; first compound 0.1265 µM) | relative viability (BI-D1870 + OSI-027; first compound 0.4 µM) | relative viability (BI-D1870 + OSI-027; first compound 1.265 µM) | relative viability (BI-D1870 + OSI-027; first compound 4 µM) | relative viability (BI-D1870 + Tozasertib; first compound 0.04 µM) | relative viability (BI-D1870 + Tozasertib; first compound 0.1265 µM) | relative viability (BI-D1870 + Tozasertib; first compound 0.4 µM) | relative viability (BI-D1870 + Tozasertib; first compound 1.265 µM) | relative viability (BI-D1870 + Tozasertib; first compound 4 µM) | relative viability (Zebularine + Alpelisib; first compound 1 µM) | relative viability (Zebularine + Alpelisib; first compound 3.162 µM) | relative viability (Zebularine + Alpelisib; first compound 10 µM) | relative viability (Zebularine + Alpelisib; first compound 31.62 µM) | relative viability (Zebularine + Alpelisib; first compound 100 µM) | relative viability (BI-D1870 + AZD7762; first compound 0.4 µM)
1 | NCI-H1648 | 0.67 | 0.677 | 0.646 | 0.57 | 0.266 | 0.255 | 0.273 | 0.252 | 0.277 | 0.479 | 0.48 | 0.371 | 0.566 | 0.412 | – | – | – | – | – | –
2 | SK-MES-1 | – | – | – | – | 0.699 | 0.559 | 0.567 | 0.55 | 0.336 | 1.06 | 0.82 | 0.766 | 0.607 | 0.22 | 0.902 | 1.01 | 0.596 | 0.575 | 0.345 | –
3 | HCC-366 | 0.389 | 0.273 | 0.662 | 0.477 | 1.1 | 0.603 | 0.75 | 0.818 | 0.49 | 0.0892 | 0.057 | 0.055 | 0.0986 | 0.0506 | 0.409 | 0.434 | 0.161 | 0.509 | 0.182 | 0.202
4 | 201T | 0.663 | 0.534 | 0.618 | 0.696 | 0.742 | 0.826 | 0.702 | 0.801 | 0.683 | 0.993 | 0.905 | 0.935 | 0.955 | 0.936 | 1.07 | 1.06 | 0.859 | 0.992 | 0.877 | 0.602
5 | HCC-827 | 0.233 | 0.295 | 0.223 | 0.185 | 0.74 | 0.738 | 0.71 | 0.76 | 0.711 | 0.421 | 0.401 | 0.377 | 0.396 | 0.369 | 1.02 | 1.11 | 0.84 | 0.673 | 0.305 | 0.173
6 | NCI-H647 | 0.432 | 0.502 | 0.611 | 0.479 | 0.657 | 0.519 | 0.664 | 0.855 | 0.53 | 0.399 | 0.251 | 0.442 | 0.385 | 0.138 | 1.05 | 0.932 | 0.422 | 0.246 | 0.167 | 0.494
7 | NCI-H2023 | – | – | – | – | 0.456 | 0.298 | 0.323 | 0.319 | 0.223 | 0.308 | 0.265 | 0.253 | 0.227 | 0.164 | 0.697 | 0.551 | 0.533 | 0.53 | 0.287 | –
8 | NCI-H520 | – | – | – | – | 0.226 | 0.205 | 0.252 | 0.291 | 0.2 | 0.508 | 0.441 | 0.44 | 0.358 | 0.36 | 1.1 | 0.835 | 0.429 | 0.375 | 0.275 | –
9 | RERF-LC-KJ | 0.944 | 0.896 | 1.08 | 0.914 | 0.595 | 0.478 | 0.558 | 0.628 | 0.389 | 0.467 | 0.398 | 0.418 | 0.338 | 0.239 | 0.93 | 0.859 | 0.611 | 1.03 | 0.753 | 0.946
10 | A-427 | 0.86 | 0.717 | 1.01 | 0.796 | 0.547 | 0.429 | 0.574 | 0.61 | 0.528 | 0.202 | 0.213 | 0.21 | 0.238 | 0.221 | 1.08 | 0.993 | 0.785 | 0.412 | 0.237 | 0.848
11 | NCI-H441 | 1.29 | 1.09 | 1.09 | 1.1 | 0.577 | 0.557 | 0.601 | 0.637 | 0.496 | 0.56 | 0.531 | 0.59 | 0.504 | 0.407 | 0.779 | 0.73 | 0.496 | 0.271 | 0.264 | 1.03
12 | NCI-H1703 | 0.143 | – | 0.142 | 0.116 | – | – | – | – | – | – | – | – | – | – | 0.311 | 0.337 | 0.307 | 0.325 | 0.353 | 0.122
13 | NCI-H1792 | 0.728 | 0.599 | 0.72 | 0.527 | 0.753 | 0.613 | 0.533 | 0.552 | 0.397 | – | – | – | – | – | 0.8 | 0.622 | 0.514 | 0.215 | 0.316 | 0.72
14 | Calu-6 | – | – | – | – | – | – | – | – | – | – | – | – | – | – | 1 | 0.929 | 0.869 | 0.786 | 0.302 | –
15 | SK-LU-1 | – | – | – | – | 0.386 | 0.305 | 0.26 | 0.299 | 0.199 | 0.365 | 0.276 | 0.262 | 0.339 | 0.204 | 1.2 | 0.875 | 0.66 | 0.745 | 0.468 | –
16 | PC-3 [JPC-3] | 0.851 | 0.75 | 0.693 | 0.449 | 0.752 | 0.703 | 0.674 | 0.697 | 0.565 | 0.913 | 0.911 | 0.866 | 0.902 | 0.8 | 1.09 | 0.948 | 0.748 | 0.824 | 0.469 | 0.837
17 | EMC-BAC-2 | 1.21 | 1.11 | 1.38 | 1.02 | 0.46 | 0.37 | 0.351 | 0.422 | 0.334 | 0.317 | 0.248 | 0.316 | 0.288 | 0.259 | 0.799 | 0.583 | 0.456 | 0.878 | 0.773 | 1.05
18 | LK-2 | 0.509 | 0.473 | 0.536 | 0.263 | 0.21 | 0.259 | 0.198 | 0.197 | 0.148 | 0.146 | 0.175 | 0.172 | 0.175 | 0.148 | 1.15 | 1.29 | 0.541 | 0.665 | 0.407 | 0.374
